Measurements published in patent US7301005B2, “Immunomodulatory peptides derived from heat shock proteins and uses thereof” (priority 2000, dated 2007).
Marks after values point to notes of the source that are not given here.

Legend:
Assay type in all cases: cell-based, human
[1] = system: SFMC from patients with oJIA; experiment: Proliferative response of SFMC incubated with dnaJ and restimulated with autologous feeder cells plus peptide; details: for SI: Table 3, dnaJ 72 hr then restimulated with peptide, mean+SD
Method: Results, expressed as stimulation index (SI), are shown as mean+SD.
In order to identify possible relevant epitopes on the bacterial dnaJ protein, PBMC and SFMC of patients with oJIA were incubated for 72 hr with dnaJ, and restimulated with autologous feeder cells the in presence or absence of selected E. coli derived MHC class II binder peptides for 96 hr.
(§1) In order to evaluate whether human homologous peptides could be the target of cross-recognition leading to self reactivity, human peptides derived from regions of HSJ1, HDJ1, or HDJ2 having sequence homology with E. coli dnaJ were studied. SFMC of 14 patients with oJIA presenting a SI to the recombinant E. coli hsp dnaJ greater than 3 were restimulated for 96 hr with autologous cells in presence or absence of human peptide 2, 3, or 5, which are homologs of bacterial peptide 4; human peptide 20, 21, or 23, which are homologs of bacterial peptide 22; or human peptide 164, 167, or 176, which are homologs of bacterial peptide 174. SFMC proliferative responses, pro-inflammatory cytokine production, and anti-inflammatory IL-4 levels were overall similar between the peptides derived from human dnaJ proteins and the homologous bacterial peptides.
Results are expressed as SI or pg/ml (mean+SD). […]
To explore the possible correlation of clinical features with the development of peptide-induced immune modulation, oJIA patients were grouped according to the course of disease, including those with persistent disease (n=16), and those with extended disease (n=15) o-JIA. (FIG. 25).

[2] = system: SFMC from patients with oJIA; experiment: Cytokine production in culture supernatants of SFMC incubated with dnaJ and restimulated with autologous feeder cells plus peptide; details: for IFNγ / IL-6 / TNFα / IL-4 / IL-10: mean+SD; for production of IL-10 in patients with extended oligoarthritis: three patients with extended oligoarthritis at sampling; for IL-10 production detectable or not: culture supernatants of SFMC
Description: Results are expressed as pg/ml (mean+SD).
Cytokine production to the same peptides was examined in culture supernatants of SFMC from patients with oJIA. […] SFMC from only one of 21 patients with oJIA produced detectable levels of the anti-inflammatory cytokine IL-10, and none produced detectable levels of IL-4.
as §1
Results are expressed as SI or pg/ml (mean+SD).

[3] = system: synovial fluid mononuclear cells (SFMC) from patients with oJIA; experiment: Proliferative response (stimulation index) of SFMC stimulated with antigen for 96 hr; details: SFMC
[4] = system: peripheral blood mononuclear cells (PBMC); experiment: Proliferative response (stimulation index) of PBMC stimulated with antigen for 96 hr; details: PBMC
[5] = Table 3, dnaJ 72 hr then restimulated with peptide
[6] = Table 1, dnaJ 72 hr then restimulated with peptide 72 hr

Substance	SI [1]	IFNγ [2, 5]	IL-6 [2, 5]	TNFα [2, 5]	IFNγ [2, 6] [pg/mL]	IL-4 [2, 6] [pg/mL]	IL-6 [2, 6] [pg/mL]	IL-10 [2, 6] [pg/mL]	TNFα [2, 6] [pg/mL]	further results
ASYYEILDVPRSASA (listed as Homo sapiens) [Peptide 2, human HSJ1 peptide, homologue of bacterial dnaJ peptide 4]	5.9 + 5.7	51.3 + 72.4 pg/ml	41.7 + 43.8 pg/ml	23.2 + 26.8 pg/ml	–	–	–	–	–	–
DLQLAMAYSLSEMEA (listed as Homo sapiens) [Peptide 254, non-homologous human peptide (HSJ1)]	–	–	–	–	–	–	–	–	–	production of IL-10 in patients with extended oligoarthritis [2]: reduced production of IL-10
EDLFMCMDIQLVEAL (listed as Homo sapiens) [Peptide 256, non-homologous human peptide (HDJ2)]	–	–	–	–	–	–	–	–	–	production of IL-10 in patients with extended oligoarthritis [2]: reduced production of IL-10
FRSVSTSTTFVQGRR (listed as Homo sapiens) [Peptide 164, human HSJ1 peptide, homologue of bacterial dnaJ peptide 174]	4.2 + 4.0	52.5 + 85.2 pg/ml	27.3 + 31.3 pg/ml	13.5 + 18.9 pg/ml	–	–	–	–	–	–
GDLYVQVQVKQHPIF (listed as Escherichia coli) [Peptide 242, bacterial (E. coli) dnaJ peptide]	–	–	–	–	41.2 ± 48.8	<0.39	34.1 ± 41.7	5.3 ± 6.6	14.2 ± 29.2	–
GRRITTRRIMENGQE (listed as Homo sapiens) [Peptide 176, human HSJ1 peptide, homologue of bacterial dnaJ peptide 174]	4.3 + 2.7	45.6 + 68.3 pg/ml	21.2 + 25.2 pg/ml	8.9 + 10.3 pg/ml	–	–	–	–	–	–
KDYYQTLGLARGASD (listed as Homo sapiens) [Peptide 3, human HDJ1 peptide, homologue of bacterial dnaJ peptide 4]	8.0 + 7.5	57.5 + 85.7 pg/ml	114.0 + 126 pg/ml	10.3 + 9.9 pg/ml	–	–	–	–	–	–
KKAYRKLALKYHPDK (listed as Homo sapiens) [Peptide 23, human HDJ2 peptide, homologue of bacterial dnaJ peptide 22]	4.7 + 4.0	38.2 + 75 pg/ml	33.3 + 32.7 pg/ml	7.7 + 7.6 pg/ml	–	–	–	–	–	IL-10 production detectable or not [2]: did not induce detectable levels of IL-10
KKAYRRKALQWHPDK (listed as Homo sapiens) [Peptide 20, human HSJ1 peptide, homologue of bacterial dnaJ peptide 22]	4.7 + 4.7	25.3 + 47.4 pg/ml	33.0 + 34.0 pg/ml	11.8 + 11.2 pg/ml	–	–	–	–	–	IL-10 production detectable or not [2]: did not induce detectable levels of IL-10
KRAYRRQALRYHPDK (listed as Homo sapiens) [Peptide 21, human HDJ1 peptide, homologue of bacterial dnaJ peptide 22]	4.6 + 4.2	30.8 + 56.4 pg/ml	33.5 + 43.8 pg/ml	26.6 + 39.3 pg/ml	–	–	–	–	–	IL-10 production detectable or not [2]: did not induce detectable levels of IL-10
PGMVQQIQSVCMECQ (listed as Homo sapiens) [Peptide 167, human HDJ2 peptide, homologue of bacterial dnaJ peptide 174]	3.9 + 3.1	38.3 + 61.2 pg/ml	23.0 + 22.3 pg/ml	7.3 + 7.3 pg/ml	–	–	–	–	–	–
PINFAMAALGGEIEV (listed as Escherichia coli) [Peptide 268, bacterial (E. coli) dnaJ peptide]	–	–	–	–	34.7 ± 51.2	<0.39	45 ± 58.4	<3.9	17.2 ± 30.1	–
QAYEVLSDAKKRELYD (listed as Homo sapiens) [Peptide 50, non-homologous human peptide (HDJ2)]	–	–	–	–	–	–	–	–	–	production of IL-10 in patients with extended oligoarthritis [2]: reduced production of IL-10
QDYYEILGVSKTAEE (listed as Escherichia coli) [Peptide 4, bacterial (E. coli) dnaJ peptide]	4.1 + 3.33	30.8 + 52.4 pg/ml	60.2 + 60.3 pg/ml	6.0 + 4.5 pg/ml	38.5 ± 47.7	<0.39	49.8 ± 54.0	5.4 ± 6.9	9.8 ± 21.2	–
QGFFAVQQTCPHCQG (listed as Escherichia coli) [Peptide 174, bacterial (E. coli) dnaJ peptide]	5.9 + 7.5	31.4 + 53.1 pg/ml	56.4 + 70 pg/ml	16.1 + 30.9 pg/ml	29.8 ± 44.6	<0.39	47.3 ± 61.2	4.2 ± 1.9	16.1 ± 31.5	–
QKRAAYDQYGHAAFEQ (listed as Escherichia coli) [Peptide 61, bacterial (E. coli) dnaJ peptide]	–	–	–	–	31 ± 45.7	<0.39	47.6 ± 70.5	<3.9	22.6 ± 35.3	–
RKAYKRLAMKYHPDR (listed as Escherichia coli) [Peptide 22, bacterial (E. coli) dnaJ peptide]	4.7 + 4.0	20.1 + 33.5 pg/ml	54.3 + 69.0 pg/ml	10.5 + 23.1 pg/ml	27 ± 38.0	<0.39	45.7 ± 57.7	4.4 ± 2.7	14.1 ± 26.8	IL-10 production detectable or not [2]: did not induce detectable levels of IL-10
RTIVITSHPGQIVKH (listed as Homo sapiens) [Peptide 283, non-homologous human peptide (HDJ2)]	–	–	–	–	–	–	–	–	–	production of IL-10 in patients with extended oligoarthritis [2]: reduced production of IL-10
SKTLSVKIPGAVDTG (listed as Escherichia coli) [Peptide 209, bacterial (E. coli) dnaJ peptide]	–	–	–	–	41.3 ± 46.9	<0.39	56.6 ± 65.9	6.2 ± 5.8	15.3 ± 29.2	–
TTYYDVLGVKPNATQ (listed as Homo sapiens) [Peptide 5, human HDJ2 peptide, homologue of bacterial dnaJ peptide 4]	8.2 + 7.3*	69.5 + 105.2@ pg/ml	60.0 + 67.2 pg/ml	18.9 + 16.9 pg/ml	–	–	–	–	–	proliferative response compared with bacterial homolog ([1]; p<0.03): significantly greater; IFNγ production compared with bacterial homolog ([2]; p<0.05): significantly greater
YCEVPTNFAMAALGG [Peptide 264]	–	–	–	–	44.9 ± 55.8	<0.39	47.4 ± 61.2	<3.9	14.0 ± 29.3	–
tetanus toxoid [TT, reference compound]	–	–	–	–	–	–	–	–	–	median SI [3]: 6.0; median SI [4]: 12.3
